Data from US20230091225A1, “Bifunctional chimeric heterocyclic compounds for targeted degradation of androgen receptors and use thereof” (HINOVA PHARMACEUTICALS INC., priority 2019, published 2023).
Where two headings read alike, the source gives them in different places. Each block holds one compound with its values, some of them ahead of it.

Biological target: T1, androgen receptor (AR) (Homo sapiens, UniProt P10275)
T1 sequence (P10275 1-920): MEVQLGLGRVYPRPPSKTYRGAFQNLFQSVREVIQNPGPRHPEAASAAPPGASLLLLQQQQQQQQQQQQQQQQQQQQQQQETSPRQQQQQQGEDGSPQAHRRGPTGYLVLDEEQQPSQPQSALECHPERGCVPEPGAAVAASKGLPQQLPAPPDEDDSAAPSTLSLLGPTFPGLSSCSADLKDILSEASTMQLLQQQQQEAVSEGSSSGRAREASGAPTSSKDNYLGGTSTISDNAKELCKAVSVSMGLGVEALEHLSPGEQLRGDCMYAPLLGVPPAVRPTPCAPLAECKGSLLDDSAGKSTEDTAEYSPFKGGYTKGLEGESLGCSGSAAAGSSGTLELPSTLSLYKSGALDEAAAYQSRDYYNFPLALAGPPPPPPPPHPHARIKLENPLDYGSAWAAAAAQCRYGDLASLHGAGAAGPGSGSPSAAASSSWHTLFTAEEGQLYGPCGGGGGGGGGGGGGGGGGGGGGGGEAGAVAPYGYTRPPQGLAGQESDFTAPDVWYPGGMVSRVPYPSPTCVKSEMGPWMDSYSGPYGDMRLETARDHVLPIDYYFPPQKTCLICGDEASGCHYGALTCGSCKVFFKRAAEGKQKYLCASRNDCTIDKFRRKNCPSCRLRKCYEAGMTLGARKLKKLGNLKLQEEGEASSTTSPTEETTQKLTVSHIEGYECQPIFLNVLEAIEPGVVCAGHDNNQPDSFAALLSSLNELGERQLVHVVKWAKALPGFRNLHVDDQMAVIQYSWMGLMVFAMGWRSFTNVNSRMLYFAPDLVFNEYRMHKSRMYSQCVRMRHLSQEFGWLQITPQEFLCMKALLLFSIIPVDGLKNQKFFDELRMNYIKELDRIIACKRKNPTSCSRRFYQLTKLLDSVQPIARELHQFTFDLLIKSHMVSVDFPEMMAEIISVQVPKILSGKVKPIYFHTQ
Assay: Degradation of androgen receptor (AR) protein in VCaP cells by ELISA
Format: cell-based
Settings: for Dmax: VCaP

[1] = AR degradation, VCaP cells, 16 h, ELISA, Table 3-1, read-out: DC50
[2] = AR degradation, VCaP cells, 16 h, ELISA, Table 3-1, read-out: Dmax (%)
[3] = AR degradation, VCaP cells, 16 h, ELISA, Table 3-2, read-out: DC50
[4] = AR degradation, VCaP cells, 16 h, ELISA, Table 3-2, read-out: Dmax (%)
[5] = AR degradation, VCaP cells, 16 h, ELISA, Table 3-1

DC50 [1]: < 10 nM
Dmax [2]: > 80%
Compound: N#Cc1ccc(OC2CCC(NC(=O)c3cnc(N4CCC(CN5CC6(CCN(c7cc8c(cc7F)C(=O)N(C7CCC(=O)NC7=O)C8=O)CC6)C5)CC4)cn3)CC2)cc1Cl (centres unmarked) [Compound 234, N-((1r,4r)-4-(3-chloro-4-cyanophenoxy)cyclohexyl)-5-(4-((7-(2,6-dioxopiperidin-3-yl)-6-fluoro-1,3-dioxoisoindolin-5-yl)-2,7-diazaspiro[3.5]nonan-2-yl)methyl)piperidin-1-yl)pyrazine-2-carboxamide]

DC50 [1]: 10 to 100 nM
Dmax [2]: > 80%
Compound: C[C@@H]1CN(c2cnc(C(=O)N[C@H]3CC[C@H](Oc4ccc(C#N)c(Cl)c4)CC3)cn2)CCN1C[C@H]1[C@@H]2CN(c3cc4c(cc3F)C(=O)N(C3CCC(=O)NC3=O)C4=O)C[C@@H]21 (stereo partly drawn) [Compound 266, N-((1r,4R)-4-(3-chloro-4-cyanophenoxy)cyclohexyl)-5-((3R)-4-((1R,5S,6s)-3-(2-(2,6-dioxopiperidin-3-yl)-6-fluoro-1,3-dioxoisoindolin-5-yl)-3-azabicyclo[3.1.0]n-hexane-6-yl)methyl-3-methylpiperazin-1-yl)pyrazine-2-carboxamide]

DC50 [3]: < 10 nM
Dmax [4]: 60 to 80%
Compound: CC1(C)[C@H](Oc2ccc(C#N)c(Cl)c2)C(C)(C)[C@H]1N1Cc2nc(C#C[C@H]3C[C@H](N4CCN(c5ccc6c(c5)C(=O)N(C5CCC(=O)NC5=O)C6=O)CC4)C3)cnc2C1=O (some centres unmarked) [Compound 390]

Dmax (%) [5]: ++++ (>80%)
DC50 [1]: 10 to 100 nM
Compound: CC1(C)[C@H](Oc2ccc(C#N)c(Cl)c2)C(C)(C)[C@H]1N1Cc2nc(C#CC3CCC(N4CC5(CCN(c6cc7c(cc6F)C(=O)N(C6CCC(=O)NC6=O)C7=O)C5)C4)CC3)ccc2C1=O (some centres unmarked) [Compound 371]

DC50 [3]: > 300 nM
Dmax [4]: 40 to 60%
Compound: CC1(C)[C@H](Oc2ccc(C#N)c(Cl)c2)C(C)(C)[C@H]1N1Cc2nc(C#CC3CCC(N4CC5CC4CN5c4cc5c(cc4F)C(=O)N(C4CCC(=O)NC4=O)C5=O)CC3)cnc2C1=O (some centres unmarked) [Compound 386]

DC50 [3]: 10 to 100 nM
Dmax [4]: > 80%
Compound: CC1(C)[C@H](Oc2ccc(C#N)c(Br)c2)C(C)(C)[C@H]1N1Cc2nc(C#C[C@H]3CC[C@H](N4CCN(c5ccc6c(c5)C(=O)N(C5CCC(=O)NC5=O)C6=O)CC4)CC3)ccc2C1=O (some centres unmarked) [Compound 398]

DC50 [3]: 10 to 100 nM
Dmax [4]: > 80%
Compound: CC1(C)[C@H](Oc2ccc(C#N)c(Br)c2)C(C)(C)[C@H]1N1Cc2nc(C#C[C@H]3CC[C@H](N4CCN(c5cc6c(cc5F)C(=O)N(C5CCC(=O)NC5=O)C6=O)CC4)CC3)ccc2C1=O (some centres unmarked) [Compound 397]

DC50 [1]: < 10 nM
Dmax [2]: > 80%
Compound: N#Cc1ccc(O[C@H]2CC[C@H](NC(=O)c3cnc(N4CCC(CN5CCC6(CC5)CN(c5cc7c(cc5F)C(=O)N(C5CCC(=O)NC5=O)C7=O)C6)CC4)cn3)CC2)cc1Cl (some centres unmarked) [Compound 233]

DC50 [1]: 10 to 100 nM
Dmax [2]: > 80%
Compound: CC1(C)[C@H](Oc2ccc(C#N)c(Cl)c2)C(C)(C)[C@H]1N1Cc2nc(N3CCC(CN4CCN(c5ccc6c(c5)C(=O)N(C5CCC(=O)NC5=O)C6=O)CC4)CC3)ncc2C1=O (some centres unmarked) [Compound 383]

DC50 [1]: 10 to 100 nM
Dmax [2]: 60 to 80%
Compound: N#Cc1ccc(O[C@H]2CC[C@H](NC(=O)c3ccc(N4CCCN(C[C@@H]5[C@H]6CN(c7cc8c(cc7F)C(=O)N(C7CCC(=O)NC7=O)C8=O)C[C@@H]56)CC4)nn3)CC2)cc1Cl (some centres unmarked) [Compound 93]

DC50 [1]: 10 to 100 nM
Dmax [2]: 60 to 80%
Compound: N#Cc1ccc(O[C@H]2CC[C@H](NC(=O)c3ccc(N4CCC(CN5CCC(Oc6ccc7c(c6)C(=O)N(C6CCC(=O)NC6=O)C7=O)CC5)CC4)nn3)CC2)cc1Cl (some centres unmarked) [Compound 147]

DC50 [3]: < 10 nM
Dmax [4]: > 80%
Compound: N#Cc1ccc(O[C@H]2CC[C@H](NC(=O)c3nnc(N4CC5(CCN(CC6CCN(c7cc8c(cc7F)C(=O)N(C7CCC(=O)NC7=O)C8=O)CC6)CC5)C4)s3)CC2)cc1Cl (some centres unmarked) [Compound 107, N-((1r,4r)-4-(3-chloro-4-cyanophenoxy)cyclohexyl)-5-(7-((1-(2-(2,6-dioxopiperidin-3-yl)-6-fluoro-1,3-dioxoisoindolin-5-yl)piperidine-4-yl)methyl)-2,7-diazaspiro[3.5]nonan-2-yl)-1,3,4-thiadiazole-2-carboxamide]

DC50 [1]: < 10 nM
Dmax [2]: > 80%
Compound: CC1(C)[C@H](Oc2ccc(C#N)c(Cl)c2)C(C)(C)[C@H]1N1Cc2nc(C#CC3CCC(N4CCC5(CC4)CN(c4ccc6c(c4)C(=O)N(C4CCC(=O)NC4=O)C6=O)C5)CC3)ccc2C1=O (some centres unmarked) [Compound 362]

DC50 [1]: < 10 nM
Dmax [2]: > 80%
Compound: N#Cc1ccc(O[C@H]2CC[C@H](NC(=O)c3cnc(N4CC5(CN(CC6CCN(c7cc8c(cc7F)C(=O)N(C7CCC(=O)NC7=O)C8=O)CC6)C5)C4)cn3)CC2)cc1Cl (some centres unmarked) [Compound 125]

DC50 [1]: 10 to 100 nM
Dmax [2]: 60 to 80%
Compound: CC1(C)[C@H](Oc2ccc(C#N)c(Cl)c2)C(C)(C)[C@H]1N1Cc2nc(C#CC3CCC(N4CCC5(CC4)CN(c4cc6c(cc4F)C(=O)N(C4CCC(=O)NC4=O)C6=O)C5)CC3)ccc2C1=O (some centres unmarked) [Compound 363]

The remaining lines, values behind:

Compound: CN(C1CCN(c2ccc(C(=O)N[C@H]3CC[C@H](Oc4ccc(C#N)c(Cl)c4)CC3)nn2)CC1)C1CCN(c2cc3c(cc2F)C(=O)N(C2CCC(=O)NC2=O)C3=O)CC1 (some centres unmarked) [Compound 119]
DC50 [1]: < 10 nM
Dmax: > 80%

Compound: CC1(C)[C@H](Oc2ccc(C#N)c(Cl)c2)C(C)(C)[C@H]1N1Cc2nc(C#CC3CCC(N4CC5(CCN(c6ccc7c(c6)C(=O)N(C6CCC(=O)NC6=O)C7=O)CC5)C4)CC3)ccc2C1=O (some centres unmarked) [Compound 376, 2-Chloro-4-((1r,3r)-3-(2-((4-(7-(2-(2,6-dioxopiperidin-3-yl)-1,3-dioxoisoindolin-5-yl)-2,7-diazaspiro[3.5]nonan-2-yl)cyclohexyl)ethynyl)-S-oxo-5,7-dihydro-pyrrolo[3,4-b]pyridin-6-yl)-2,2,4,4-tetramethylcyclobutoxy) benzonitrile]
Dmax (%) [5]: ++ (60%-40%)
DC50 [1]: > 300 nM

Compound: N#Cc1ccc(O[C@H]2CC[C@H](NC(=O)c3ccc(N4CCC(CN5CC6(C5)CN(c5ccc7c(c5)C(=O)N(C5CCC(=O)NC5=O)C7=O)C6)CC4)nn3)CC2)cc1Cl (some centres unmarked) [Compound 121, N-((1r,4r)-4-(3-chloro-4-cyanophenoxy)cyclohexyl)-6-(4-((6-(2-(2,6-dioxopiperidin-3-yl)-1,3-dioxoisoindolin-5-yl)-2,6-diazaspiro[3.3]heptan-2-yl)methyl)piperidin-1-yl)pyridazine-3-amide]
DC50: < 10 nM
Dmax: > 80%

Compound: N#Cc1ccc(OC2CCC(NC(=O)c3cn(C4CCC(CN5CCC6(CC5)CN(c5ccc7c(c5)C(=O)N(C5CCC(=O)NC5=O)C7=O)C6)CC4)cn3)CC2)cc1Cl [Compound 113, N-((1r,4R)-4-(3-chloro-4-cyanophenoxy)cyclohexyl)-1-((1r,4R)-4-((2-(2-(2,6-dioxopiperidin-3-yl)-1,3-dioxoisoindolin-5-yl)-2,7-diazaspiro[3.5]nonan-7-yl)methyl)cyclohexyl)-1H-imidazole-4-formamide]
Dmax (%): ++++ (key: A: >80%; B: 79%-50%; C: 49%-25%; D: <25%)
DC50 (read-out: DC50): < 10 nM

Compound: N#Cc1ccc(O[C@H]2CC[C@H](NC(=O)c3ncc(N4CCC(CN5CCC6(CC5)CN(c5cc7c(cc5F)C(=O)N(C5CCC(=O)NC5=O)C7=O)C6)CC4)cn3)CC2)cc1Cl (some centres unmarked) [Compound 148]
DC50: > 300 nM
Dmax: 40 to 60%

Compound: N#Cc1ccc(O[C@H]2CC[C@H](NC(=O)c3nc(N4CCC(CN5CCC6(CC5)CN(c5ccc7c(c5)C(=O)N(C5CCC(=O)NC5=O)C7=O)C6)CC4)no3)CC2)cc1Cl (some centres unmarked) [Compound 413]
DC50: < 10 nM
Dmax: > 80%

Compound: CCOc1cc(O[C@H]2CC[C@H](NC(=O)c3ccc(N4CCC(CN5CCC6(CC5)CN(c5ccc7c(c5)C(=O)N(C5CCC(=O)NC5=O)C7=O)C6)CC4)nn3)CC2)ccc1C#N (some centres unmarked) [Compound 154]
DC50: < 10 nM
Dmax: > 80%

Compound: N#Cc1ccc(OC2CCC(NC(=O)c3cnc(N4CCN(CC5[C@H]6CN(c7cc8c(cc7F)C(=O)N(C7CCC(=O)NC7=O)C8=O)C[C@@H]56)CC4)nc3)CC2)cc1Cl (some centres unmarked) [Compound 128]
Dmax (%): +++ (key: ++++: >80%; +++: 80%-60%; ++: 60%-40%; +: <40%)
DC50 (read-out: DC50): 10 to 100 nM

Compound: N-((1r,4r)-4-(3-chloro-4-cyanophenoxy)cyclohexyl)-6-(2-((1-(2,6-dioxopiperidin-3-yl)-6-fluoro-1,3-dioxoisoindolin-5-yl)piperidine-4-yl)methyl)-2,7-diazaspiro[(3.5]nonan-7-yl)-N-(methyl-d3)pyridazine-3-formamide [Compound 91]
Dmax (%): + (key: ++++: >80%; +++: 80%-60%; ++: 60%-40%; +: <40%)
DC50 (read-out: DC50): > 300 nM

Compound: N#Cc1ccc(O[C@H]2CC[C@H](NC(=O)c3ncc(N4CCC(CN5CCC6(CC5)CN(c5ccc7c(c5)C(=O)N(C5CCC(=O)NC5=O)C7=O)C6)CC4)cn3)CC2)cc1Cl (some centres unmarked) [Compound 135]
DC50 [1]: > 300 nM
Dmax [2]: < 40%
